Assay results as given in patent US20260069599A1, “INHIBITORS OF BROMODOMAIN-CONTAINING PROTEIN 4 AND PHOSPHOINOSITIDE 3-KINASE” (Board of Regents of the University of Nebraska, priority 2022, published 2026).

Key:
BRD4-BD2 [1] = molecular target: T1, BRD4-BD2 (Homo sapiens, UniProt O60885); test: Protein Thermal Shift (PTS) assay on BRD4-BD2; format: binding; set-up: polyhistidine (N, cleaved yes); made in house; host or cells: E. coli (T7 express); details: 100 μM ligand, 20 μM BD protein; thermal destabilization
Protocol: The genes encoding human BRD2-BD1, BRD2-BD2, and BRD4-BD2 were codon-optimized for expression in E. coli. […] The sequence-confirmed plasmids were used to transform T7 express E coli. Large-scale cell cultures were grown in LB media containing […] carbenicillin and incubated with shaking at 37° C. until the OD600 nm reached 0.6. Then cultures were cooled to 16° C., and 1 mM isopropyl β-D-1-thiogalactopyranoside was added to induce the protein expression. After 20 hours of incubation, cells were harvested. The resulting cell pellet was resuspended in a lysis buffer containing 50 mM Tris pH 7.5, 200 mM NaCl, 0.5 mM imidazole, and 0.3 mM tris(2-carboxyethyl) phosphine (TECP). After the addition of DNase I and lysozyme, the cell suspension was incubated on ice for 30 minutes and lysed by sonication. The lysate was clarified by centrifugation at 12,000 rpm for 45 minutes. The resulting supernatant was applied to a 5 mL metal affinity cobalt column pre-equilibrated with lysis buffer. Then, 25 column volumes of lysis buffer were passed through the column to eliminate unbound E coli proteins. Recombinant protein was eluted isocratically with the elution buffer containing 50 mM Tris pH 7.5, 200 mM NaCl, 150 mM imidazole, and 0.3 mM TECP. The rhinovirus 3C protease was added to the eluted recombinant protein to cleave the N-terminal Histidine tag and the sample dialyzed against a buffer containing 50 mM Tris pH 7.5, 100 mM NaCl and 0.3 mM TECP. After 12 hours, the protein solution was passed through a 5 ml cobalt column, which was pre-equilibrated with dialysis buffer, and the recombinant protein lacking the His-tag was collected from the flowthrough.
Each reaction used 20 μM concentration of recombinant BD protein in a 50 mM Tris pH 7.5 buffer containing 100 mM NaCl, 0.3 mM tris(2-carboxyethyl) phosphine HCl, and 1% dimethyl sulfoxide. Protein Thermal Shift Dye (ThermoFisher) was also added at 1× concentration. Under these conditions, 3 protein melting curves with each respective BD and 100 μM final concentration of ligand were performed from 25 to 95° C. with a ramp rate of 0.5° C./minute. Evaluation of the derivative of the fluorescence signal employed the Applied Bioscience Protein Thermal Shift Software version 1.3 to determine the average melting temperature (Tm) for each sample and the standard deviation(s) of those Tm values.

BRD4-BD2 [2] = molecular target: T1, BRD4-BD2; set-up: tested against BRD4-BD1 and BRD4-BD2 using a peptide-displacement assay; details: relative to SF2523; cited from earlier work
BRD4-BD1 = molecular target: T2, BRD4-BD1 (Homo sapiens, UniProt O60885); details: relative to SF2523; cited from earlier work
T2 construct: tested against BRD4-BD1 and BRD4-BD2 using a peptide-displacement assay

Row | BRD4-BD2 Tm decrease (BRD4-BD2 [1]) | SMILES | better binding affinity than SF2523 for BRD4-BD2 (BRD4-BD2 [2]) | better binding affinity than SF2523 for BRD4-BD1 (BRD4-BD1)
1 | 0.6 °C | O=c1cc(N2CCOCC2)oc2c(Br)cccc12 [MDP4, 8-bromo-2-morpholino-4H-chromen-4-one] | – | –
2 | – | O=C(NCc1cccnc1)c1cc(-c2csc3c(=O)cc(N4CCOCC4)oc23)cc2c1OCCO2 [SRX3212] | 48 fold | 65 fold
3 | 1.3 °C | O=c1c(N2CCOCC2)nc(Br)c2n1CCc1ccccc1-2 [MDP3, 1-bromo-3-morpholino-6,7-dihydro-4H-pyrazino [2,1-a]isoquinolin-4-one] | – | –
